The results in this text go back to patent publication US20250275959A1, “COMPOUNDS AND METHODS OF THEIR USE” (LEXICON PHARMACEUTICALS, INC., priority 2024, published 2025).

Test [1] concerns the target T1, hACSL5 (Homo sapiens (Human), UniProt Q9ULC5). Description: Cell-based assay (CBA) with B12FA in hACSL5-transfected Expi293F / FlpIn TRex293 cells. To be noted: hACSL5-expressing cells. An outline of the steps: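 hACSL5-expressing Expi293F or tetracycline-induced FlpIn TRex293 cells, serum- and glucose-starved 1 h, then treated 3 h with serially diluted compound plus 20 µM B12FA. After fixation, 630/520 nm emission ratio (ex 485 nm) gave % inhibition versus no-inhibitor and 10 µM compound/non-induced controls; IC50 by Hill fit.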
Target sequence in this assay (Q9ULC5 whole entry): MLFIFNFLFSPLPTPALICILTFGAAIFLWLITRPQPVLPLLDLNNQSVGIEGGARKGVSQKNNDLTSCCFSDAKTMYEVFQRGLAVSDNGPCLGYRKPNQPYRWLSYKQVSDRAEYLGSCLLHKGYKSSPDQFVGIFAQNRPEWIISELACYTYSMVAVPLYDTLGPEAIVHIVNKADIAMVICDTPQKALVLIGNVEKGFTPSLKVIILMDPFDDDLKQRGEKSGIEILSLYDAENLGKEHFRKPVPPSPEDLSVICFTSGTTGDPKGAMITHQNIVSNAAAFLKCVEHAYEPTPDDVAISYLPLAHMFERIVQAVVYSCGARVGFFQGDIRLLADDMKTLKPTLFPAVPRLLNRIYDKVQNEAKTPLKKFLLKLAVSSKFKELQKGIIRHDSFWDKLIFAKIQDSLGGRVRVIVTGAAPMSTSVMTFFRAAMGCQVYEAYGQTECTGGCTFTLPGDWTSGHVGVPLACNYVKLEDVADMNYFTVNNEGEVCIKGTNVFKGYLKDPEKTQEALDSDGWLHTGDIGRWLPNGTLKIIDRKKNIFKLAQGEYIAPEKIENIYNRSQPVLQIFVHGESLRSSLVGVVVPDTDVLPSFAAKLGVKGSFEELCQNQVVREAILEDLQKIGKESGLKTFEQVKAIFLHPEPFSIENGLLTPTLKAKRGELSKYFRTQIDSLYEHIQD

Test [2] has as its target T1, hACSL5. Description: Human ACSL5 coupled enzyme Amplex Red assay. To be noted: read-out: hACSL5 IC50. It counts as biochemical. A digest of the protocol:
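Amplex Red coupled readout: 1 mM ATP, 25 μM oleate and 30 μM CoA were added to compound-preincubated enzyme (20 nM, residues 33-683, insect-cell expressed, His-tagged) with coupling peroxidase and acyl-CoA oxidase at pH 7.6. Signal was read at 535/590 nm after 10 minutes at 25° C., and Hill fits yielded half-maximal and maximal inhibition.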
Target sequence in this assay (Q9ULC5 33-683): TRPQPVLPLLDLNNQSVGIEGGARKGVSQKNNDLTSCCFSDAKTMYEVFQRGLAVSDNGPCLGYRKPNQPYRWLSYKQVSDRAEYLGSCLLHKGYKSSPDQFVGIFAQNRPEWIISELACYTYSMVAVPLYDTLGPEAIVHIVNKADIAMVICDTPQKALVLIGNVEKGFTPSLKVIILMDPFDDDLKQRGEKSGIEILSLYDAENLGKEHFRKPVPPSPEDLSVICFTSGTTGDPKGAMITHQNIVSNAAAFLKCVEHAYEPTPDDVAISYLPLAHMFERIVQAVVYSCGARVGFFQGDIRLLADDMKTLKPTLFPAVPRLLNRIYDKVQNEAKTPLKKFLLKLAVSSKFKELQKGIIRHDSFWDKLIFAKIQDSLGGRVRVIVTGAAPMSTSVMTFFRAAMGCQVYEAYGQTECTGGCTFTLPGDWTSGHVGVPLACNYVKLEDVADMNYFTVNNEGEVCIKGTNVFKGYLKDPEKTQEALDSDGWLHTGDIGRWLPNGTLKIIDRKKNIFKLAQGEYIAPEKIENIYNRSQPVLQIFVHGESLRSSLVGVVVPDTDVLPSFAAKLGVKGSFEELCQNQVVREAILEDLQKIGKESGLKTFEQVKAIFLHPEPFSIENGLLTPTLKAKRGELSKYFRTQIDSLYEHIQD

On to `CC[C@@H](Oc1ccc(C(=O)NS(=O)(=O)C(C)(C)CN(C)C)c(F)c1F)c1ccc(OCC2CC2)cn1` [(R)-4-(1-(5-(cyclopropylmethoxy)pyridin-2-yl)propoxy)-N-((1-(dimethylamino)-2-methylpropan-2-yl)sulfonyl)-2,3-difluorobenzamide], for which the IC50 on hACSL5 [1] and on hACSL5 [2] was 100 to 500 nM throughout.
Turning to `CC[C@@H](Oc1ccc(C(=O)NS(=O)(=O)c2ccc(OCCN(C)C)cc2)cc1C(F)(F)F)c1ccc(OCC2CC2)cn1` [(R)-4-(1-(5-(cyclopropylmethoxy)pyridin-2-yl)propoxy)-N-((4-(2-(dimethylamino)ethoxy)phenyl)sulfonyl)-3-(trifluoromethyl)benzamide], the concentration for half-maximal inhibition (IC50) is 100 to 500 nM against hACSL5 [1] and less than 100 nM at hACSL5 [2].
The like results for `CC[C@@H](Oc1ccc(C(=O)NS(=O)(=O)N2CCC(OCCN(C)C)CC2)c(F)c1F)c1ccc(OCC2CC2)cn1` [(R)-4-(1-(5-(cyclopropylmethoxy)pyridin-2-yl)propoxy)-N-((4-(2-(dimethylamino)ethoxy)piperidin-1-yl)sulfonyl)-2,3-difluorobenzamide] were, in that order, 100 to 500 nM and less than 100 nM.
The like results for `CC[C@@H](Oc1ccc(C(=O)NS(=O)(=O)c2ccc(OC3CCN(CC(F)F)CC3)cc2)c(F)c1F)c1ccc(OCC2CC2)cn1` [(R)-4-(1-(5-(cyclopropylmethoxy)pyridin-2-yl)propoxy)-N-((4-((1-(2,2-difluoroethyl)piperidin-4-yl)oxy)phenyl)sulfonyl)-2,3-difluorobenzamide] were, in that order, 100 to 500 nM and less than 100 nM.
The matching figures for `CC[C@@H](Oc1ccc(C(=O)NS(=O)(=O)c2ccc(OC3CCN(CC4CC4)CC3)cc2)c(F)c1F)c1ccc(OCC2CC2)cn1` [(R)-4-(1-(5-(cyclopropylmethoxy)pyridin-2-yl)propoxy)-N-((4-((1-(cyclopropylmethyl)piperidin-4-yl)oxy)phenyl)sulfonyl)-2,3-difluorobenzamide]: less than 100 nM and less than 100 nM.
On to `CC[C@@H](Oc1ccc(C(=O)NS(=O)(=O)N2CCC(OC3CCN(CC4CC4)CC3)CC2)c(F)c1F)c1ccc(OCC2CC2)cn1` [(R)-4-(1-(5-(cyclopropylmethoxy)pyridin-2-yl)propoxy)-N-((4-((1-(cyclopropylmethyl)piperidin-4-yl)oxy)piperidin-1-yl)sulfonyl)-2,3-difluorobenzamide], for which the half-maximal inhibitory concentration (IC50) on hACSL5 [1] is 100 to 500 nM; at hACSL5 [2], less than 100 nM.
The matching figures for `CC[C@@H](Oc1ccc(C(=O)NS(=O)(=O)c2ccc(OC3CCN(CC)CC3)cc2)c(F)c1F)c1ccc(OCC2CC2)cn1` [(R)-4-(1-(5-(cyclopropylmethoxy)pyridin-2-yl)propoxy)-N-((4-((1-ethylpiperidin-4-yl)oxy)phenyl)sulfonyl)-2,3-difluorobenzamide]: less than 100 nM and less than 100 nM.
Regarding `CC[C@@H](Oc1ccc(C(=O)NS(=O)(=O)N2CCC(OC3CCN(C)CC3)CC2)cc1C(F)(F)F)c1ccc(OCC2CC2)cn1` [(R)-4-(1-(5-(cyclopropylmethoxy)pyridin-2-yl)propoxy)-N-((4-((1-methylpiperidin-4-yl)oxy)piperidin-1-yl)sulfonyl)-3-(trifluoromethyl)benzamide], the half-inhibitory concentration (IC50) at hACSL5 [1] and on hACSL5 [2] was less than 100 nM throughout.
Consider `CC[C@@H](Oc1ccc(C(=O)NS(=O)(=O)N2CCC(CN3CCN(CC)CC3)CC2)c(F)c1F)c1ccc(OCC2CC2)cn1` [(R)-4-(1-(5-(cyclopropylmethoxy)pyridin-2-yl)propoxy)-N-((4-((4-ethylpiperazin-1-yl)methyl)piperidin-1-yl)sulfonyl)-2,3-difluorobenzamide], for which the IC50 is more than 500 nM against hACSL5 [1] and less than 100 nM at hACSL5 [2].
The matching figures for `CC[C@@H](Oc1ccc(C(=O)NS(=O)(=O)N2CCN(CC3CC3)CC2)c(F)c1F)c1ccc(OCC2CC2)cn1` [(R)-4-(1-(5-(cyclopropylmethoxy)pyridin-2-yl)propoxy)-N-((4-(cyclopropylmethyl)piperazin-1-yl)sulfonyl)-2,3-difluorobenzamide]: 100 to 500 nM and less than 100 nM.
The matching figures for `CC[C@@H](Oc1ccc(C(=O)NS(=O)(=O)N2CCN(C3CC3)CC2)c(F)c1F)c1ccc(OCC2CC2)cn1` [(R)-4-(1-(5-(cyclopropylmethoxy)pyridin-2-yl)propoxy)-N-((4-cyclopropylpiperazin-1-yl)sulfonyl)-2,3-difluorobenzamide]: less than 100 nM and less than 100 nM.
For `CC[C@@H](Oc1ccc(C(=O)NS(=O)(=O)N2CCN(CC)CC2)c(F)c1F)c1ccc(OCC2CC2)cn1` [(R)-4-(1-(5-(cyclopropylmethoxy)pyridin-2-yl)propoxy)-N-((4-ethylpiperazin-1-yl)sulfonyl)-2,3-difluorobenzamide], the IC50 on hACSL5 [1] and on hACSL5 [2] was less than 100 nM each time.
Consider `CC[C@@H](Oc1ccc(C(=O)NS(=O)(=O)N2CCN(CC)CC2)cc1C(F)(F)F)c1ccc(OCC2CC2)cn1` [(R)-4-(1-(5-(cyclopropylmethoxy)pyridin-2-yl)propoxy)-N-((4-ethylpiperazin-1-yl)sulfonyl)-3-(trifluoromethyl)benzamide], for which the 50% inhibitory concentration (IC50) against hACSL5 [1] and at hACSL5 [2] was less than 100 nM each time.
Take `CC[C@@H](Oc1ccc(C(=O)NS(=O)(=O)N2CCN(C)CC2)cc1C(F)(F)F)c1ccc(OCC2CC2)cn1` [(R)-4-(1-(5-(cyclopropylmethoxy)pyridin-2-yl)propoxy)-N-((4-methylpiperazin-1-yl)sulfonyl)-3-(trifluoromethyl)benzamide]: the IC50 against hACSL5 [1] and on hACSL5 [2] was less than 100 nM each time.
As to `CC[C@@H](Oc1ccc(C(=O)NS(=O)(=O)N2CC3(CC(OCCN(C)C)C3)C2)c(F)c1F)c1ccc(OCC2CC2)cn1` [(R)-4-(1-(5-(cyclopropylmethoxy)pyridin-2-yl)propoxy)-N-((6-(2-(dimethylamino)ethoxy)-2-azaspiro[3.3]heptan-2-yl)sulfonyl)-2,3-difluorobenzamide], the IC50 against hACSL5 [1] is more than 500 nM; at hACSL5 [2], 100 to 500 nM.
The like results for `CC[C@@H](Oc1ccc(C(=O)NS(=O)(=O)c2ccc(CN3CCN(CC)CC3)nc2)c(F)c1F)c1ccc(OCC2CC2)cn1` [(R)-4-(1-(5-(cyclopropylmethoxy)pyridin-2-yl)propoxy)-N-((6-((4-ethylpiperazin-1-yl)methyl)pyridin-3-yl)sulfonyl)-2,3-difluorobenzamide] were, in that order, more than 500 nM and less than 100 nM.
The matching figures for `CC[C@@H](Oc1ccc(C(=O)NS(=O)(=O)C(C)(C)CN(C)C)c(F)c1F)c1ccc(Oc2ccccn2)cn1` [(R)-N-((1-(dimethylamino)-2-methylpropan-2-yl)sulfonyl)-2,3-difluoro-4-(1-(5-(pyridin-2-yloxy)pyridin-2-yl)propoxy)benzamide]: less than 100 nM and less than 100 nM.
`CC[C@@H](Oc1ccc(C(=O)NS(=O)(=O)c2ccc(OCCn3ccnc3)cc2)c(F)c1F)c1ccc(OCCOC)cn1` [(R)-N-((4-(2-(1H-imidazol-1-yl)ethoxy)phenyl)sulfonyl)-2,3-difluoro-4-(1-(5-(2-methoxyethoxy)pyridin-2-yl)propoxy)benzamide]: the IC50 was more than 500 nM on hACSL5 [1] and less than 100 nM on hACSL5 [2].
The like results for `CC[C@@H](Oc1ccc(C(=O)NS(=O)(=O)c2ccc(OCCNC3CC3)cc2)c(F)c1F)c1ccc(OCC2CC2)cn1` [(R)-N-((4-(2-(cyclopropylamino)ethoxy)phenyl)sulfonyl)-4-(1-(5-(cyclopropylmethoxy)pyridin-2-yl)propoxy)-2,3-difluorobenzamide] were, in that order, less than 100 nM and less than 100 nM.
The matching figures for `CC[C@@H](Oc1ccc(C(=O)NS(=O)(=O)c2ccc(OCCN(C)C)cc2)c(F)c1F)c1cc(Oc2ccccn2)ccn1` [(R)-N-((4-(2-(dimethylamino)ethoxy)phenyl)sulfonyl)-2,3-difluoro-4-(1-(4-(pyridin-2-yloxy)pyridin-2-yl)propoxy)benzamide]: 100 to 500 nM and less than 100 nM.
The matching figures for `CC[C@@H](Oc1ccc(C(=O)NS(=O)(=O)c2ccc(OCCN(C)C)cc2)c(F)c1F)c1ccc(OCCOC)cn1` [(R)-N-((4-(2-(dimethylamino)ethoxy)phenyl)sulfonyl)-2,3-difluoro-4-(1-(5-(2-methoxyethoxy)pyridin-2-yl)propoxy)benzamide]: more than 500 nM and 100 to 500 nM.
Take `C[C@@H](Oc1ccc(C(=O)NS(=O)(=O)c2ccc(OCCN(C)C)cc2)c(F)c1F)c1ccc(Oc2ccccn2)cn1` [(R)-N-((4-(2-(dimethylamino)ethoxy)phenyl)sulfonyl)-2,3-difluoro-4-(1-(5-(pyridin-2-yloxy)pyridin-2-yl)ethoxy)benzamide]: the concentration for half-maximal inhibition (IC50) is 100 to 500 nM at hACSL5 [1] and less than 100 nM on hACSL5 [2].
The like results for `CC[C@@H](Oc1ccc(C(=O)NS(=O)(=O)c2ccc(OCCN(C)C)cc2)c(F)c1F)c1ccc(Oc2ccccn2)cn1` [(R)-N-((4-(2-(dimethylamino)ethoxy)phenyl)sulfonyl)-2,3-difluoro-4-(1-(5-(pyridin-2-yloxy)pyridin-2-yl)propoxy)benzamide] were, in that order, 100 to 500 nM and less than 100 nM.
The like results for `C[C@@H](Oc1ccc(C(=O)NS(=O)(=O)c2ccc(OCCN(C)C)cc2)cc1C(F)(F)F)c1ccc(Oc2ccccn2)cn1` [(R)-N-((4-(2-(dimethylamino)ethoxy)phenyl)sulfonyl)-4-(1-(5-(pyridin-2-yloxy)pyridin-2-yl)ethoxy)-3-(trifluoromethyl)benzamide] were, in that order, less than 100 nM and less than 100 nM.

For orientation: IC50 means the concentration at which inhibition is half-maximal.
